Values after ≈ are worked out from the molar mass of the structure shown. One block for each compound: values may come before it.
Experiments:
[1] = Solubility observations in water and common organic solvents; assay type: physicochemical
[2] = Solubility of Compound 12 in common solvents (Table 5); assay type: physicochemical; conditions: organic solvent or mixture
Description: The crystallization of Compound 12 also required optimization. Studies were undertaken to find the optimal solvent system of iPrOH/MeTHF.

[3] = system: KDM4 family of histone demethylases; conditions: cited from earlier work

solubility ([1]; in a number of common solvents): low
solubility ([2]; solvent 1-PrOH): 5 mg/mL (≈ 12.2 mM)
solubility ([2]; solvent 2-MeTHF): 63 mg/mL (≈ 153 mM)
solubility ([2]; solvent CPMe): 26 mg/mL (≈ 63.3 mM)
solubility ([2]; solvent DMAc): 77 mg/mL (≈ 188 mM)
solubility ([2]; solvent EtOAc): 22 mg/mL (≈ 53.6 mM)
solubility ([2]; solvent HOAC): 20 mg/mL (≈ 48.7 mM)
solubility ([2]; solvent IPA): 3 mg/mL (≈ 7.31 mM)
solubility ([2]; solvent IPAc): 14 mg/mL (≈ 34.1 mM)
solubility ([2]; solvent MEK): 28 mg/mL (≈ 68.2 mM)
solubility ([2]; solvent MIBK): 17 mg/mL (≈ 41.4 mM)
solubility ([2]; solvent MTBE): 11 mg/mL (≈ 26.8 mM)
solubility ([2]; solvent MeCN): 5 mg/mL (≈ 12.2 mM)
solubility ([2]; solvent MeOH): 3 mg/mL (≈ 7.31 mM)
solubility ([2]; solvent THF): ≥ 150 mg/mL
solubility ([2]; solvent toluene): 27 mg/mL (≈ 65.8 mM)
SMILES: CC(C)c1ccc(N(C)c2ccc3c(c2)OCC[C@H]3CNC(=O)OC(C)(C)C)cc1 [Compound 12]

solubility ([1]; in a number of common organic solvents including heptane): high
SMILES: CC(C)(C)OC(=O)NC[C@@H]1CCOc2cc(Br)ccc21 [Compound 11]

solubility ([1]; in most common solvents): poor
solubility ([1]; in water (low to neutral pH) and most common organic solvents, free acid): undetectable
solubility ([1]; in water and most common organic solvents): poor
SMILES: CC(C)c1ccc(N(C)c2ccc3c(c2)OCC[C@H]3CNc2cnccc2C(=O)O)cc1 [Compound 8, 3-({[(4R)-7-{methyl[4-(propan-2-yl)phenyl]amino}-3,4-dihydro-2H-1-benzopyran-4-yl]methyl}amino)pyridine-4-carboxylic acid]
inhibition of the KDM4 family of histone demethylases [3]: selective inhibitor

— patent US20250129056A1, “PROCESS FOR PREPARING HISTONE DEMETHYLASE INHIBITORS” (Celgene Corporation, priority 2021, published 2025)
